Measurements from patent US5877204A, “Compounds containing a michael-acceptor, especially maleimide or maleic acid derivatives, directly or indirectly linked to a chromophore and their use in long lasting sunscreen compositions” (Vanguard Medica Limited, priority 1994, dated 1999).
Several values for one entry are separate records, joined by “and”; a condition that tells them apart may be missing. Equal entries are not always repeated. Where two headings read alike, the source gives them in different places.

Columns and labels:
[1] = Ames tests (mutagenicity and toxicity), with or without rat liver metabolic activation system S9; type: cell-based
Text: Among the important criteria for topically applied sunscreens, safety in use has the highest priority. It was thus necessary to investigate the mutagenicity of the maleimide and maleamic acid derivatives of sunscreens. Six compounds of the present invention were chosen as representative of the main classes of sunscreen and submitted for Ames tests.

[2] = background, known sunscreen absorbers; cited from earlier work
[3] = UV absorption of the chromophore (λmax, ε); type: physicochemical; design: key to λmax: λmax in nm; conditions: for ε: at λmax, in M-1·cm-1 (unit assumed)
Text: This can sometimes be a problem since if the change in λmax is too great, the chromophore may no longer absorb light in the UVA or UVB wavelength range.
An example of this change is 4-aminobenzophenone which has a λmax of 318 nm which is in the UVB range. When the amino group is replaced by a maleamic acid group, the λmax of the chromophore shifts to 306 nm which is still within the UVB range but when the amino group is replaced by a maleimide residue, the λmax falls to 258 nm. This is outside the range of UVB although there is a restoration of UVB activity when the maleimide is reacted with cysteine as it would be when applied to the skin (λmax=293 nm). The changes are easily rationalised on the basis of conjugative effects but the effects of attaching Michael acceptors to the various chromophores which may be used cannot always easily be predicted. This problem can be overcome to a large extent simply by separating the chromophore from the Michael acceptor using a spacer. Particularly useful compounds therefore include those in which the group R is C1 -C8 alkyl-YZ, C2 -C8 alkenyl-YZ or C2 -C8 alkynyl-YZR and especially those in which Y is O. Compounds in which a hexyloxy linker is used (that is, R is (CH2)6 OZ) are especially preferred.

DNA = conditions: cited from earlier work
[4] = Reaction of maleimide derivatives with L-cysteine ethyl ester (tlc); conditions: room temperature
Experimental: In order to underpin the principle of reaction of maleimido derivatives with the cysteine thiol groups, two model reactions were studied. Thus the reactions between L-cysteine ethyl ester and N-phenylmaleimide and N-(4-benzoylphenyl)maleimide were carried out. In each case, the reaction produced the diastereoisomeric product mixtures in reasonable yields at room temperature. All starting maleimides had reacted within 30 minutes (tlc). The two products were isolated and characterised.
The mildness and rapidity of these reactions indicate that the maleimido groups confer the ability for reaction with the nucleophilic groups of keratin.

horn hoof keratin = test: Substantivity test with powdered horn-hoof keratin (uv absorptivity); type: binding, various animals
Text: Keratin prepared from the horns and hooves of various animals is commercially available, and this was used in a similar way to the hair (above). The keratin was finely powdered and stirred with a solution of the maleimido compound and its substantivity estimated by uv absorptivity measurements.

hair keratin = test: Substantivity test with human hair (uv assay of supernatant); type: binding
Experimental: Initial tests were conducted with human hair specially cleaned and prepared to provide as near to a standard substrate as possible. The method adopted utilised the reduction in ultra-violet absorptivity in the supernatant solution in contact with hair when the compound under test was absorbed into the hair surface. Standard and control solutions were employed. […] Similar tests with hair have been quoted in the patent literature as evidence, and as a standard test, for substantivity of sunscreens and other cosmetics.

[5] = effect of attaching Michael acceptor to 4-aminobenzophenone chromophore
[6] = characterisation in the Examples, solvent not stated
[7] = 1.0000 g horn hoof keratin, single tests (0.4360 g and 0.4741 g maleimide added)
[8] = horn hoof keratin, average of the two tests
[9] = uv assay, 1.0000 g hair, single tests (0.4520 g and 0.4670 g maleimide added)

`CCN1C(=O)C=CC1=O` showed a Toxicity ([1]; +S9) of 50 μG plate^-1 and a Toxicity ([1]; -S9) of 25 μG plate^-1.

In the case of `CCCCC(CC)COC(=O)C=Cc1ccc(OC)cc1` (centres unmarked) [2-ethylhexyl-4'-methoxycinnamate], the λmax [2] is given as 308 nm.

In the case of `COc1ccc(C(=O)CC(=O)c2ccc(C(C)(C)C)cc2)cc1` [4-^t butyl-4'-methoxydibenzoylmethane], the λmax [2] is given as 355 nm.

`Nc1ccc(C(=O)c2ccccc2)cc1` [4-aminobenzophenone, reference compound] showed a λmax [3, 5] of 318 nm.

In the case of `COc1c2ccoc2cc2oc(=O)ccc12` [5-methoxypsoralen (5-MOP), 5-methoxypsoralen], the “photobinding to DNA” value (DNA) is given as “photobinds to DNA”, the photocarcinogenicity (DNA) is given as “photocarcinogen” and the photomutagenicity (DNA) is given as “photomutagen”.

`O=C(O)/C=C\C(=O)Nc1ccc(C(=O)O)cc1` [Example 1, N-(4-carboxyphenyl)maleamic Acid] gave a Toxicity ([1]; +S9) of 5000 μG plate^-1 and a Toxicity ([1]; -S9) of 5000 μG plate^-1.

In the case of `O=C(O)c1ccc(N2C(=O)C=CC2=O)cc1` [Example 2, N-(4-carboxyphenyl)maleimide], the Toxicity ([1]; +S9) is reported as 500 μG plate^-1 and the Toxicity ([1]; -S9) is reported as 500 μG plate^-1.

For `O=C(O)/C=C\C(=O)Nc1ccc(C(=O)c2ccccc2)cc1` [Example 3, N-(4-benzoylphenyl)maleamic Acid], the ε ([3]; solvent not stated) was 20560, the λmax [3, 6] was 306 nm and the λmax [3, 5] was 306 nm. For the same molecule, the Toxicity ([1]; +S9) was 2500 μG plate^-1, the Toxicity ([1]; -S9) was 2500 μG plate^-1 and the Mutagenicity ([1]; Ames test, with or without S9) was “Negative”.

Work on `O=C(c1ccccc1)c1ccc(N2C(=O)C=CC2=O)cc1` [Example 4, N-(4-benzoylphenyl)maleimide] yielded a λmax [3, 5] of 258 nm, a Toxicity ([1]; +S9) of 100 μG plate^-1 and a Toxicity ([1]; -S9) of 40 μG plate^-1. The “time within which all starting maleimide had reacted” value [4] was no more than 30 min.

Work on `O=C(O)/C=C\C(=O)Nc1ccc(/C=C/C(=O)O)cc1` [Example 5, N-[4-(2-carboxy-(E)-ethenyl)phenyl]maleamic Acid] yielded a Toxicity ([1]; +S9) of 5000 μG plate^-1 and a Toxicity ([1]; -S9) of 5000 μG plate^-1.

`O=C(O)/C=C/c1ccc(N2C(=O)C=CC2=O)cc1` [Example 6, N-[4-(2-carboxy-(E)-ethenyl)phenyl]maleimide] gave a Toxicity ([1]; +S9) of 200 μG plate^-1 and a Toxicity ([1]; -S9) of 200 μG plate^-1.

In the case of `COC(=O)c1ccc(NC(=O)/C=C\C(=O)O)cc1` [Example 7, N-(4-methoxycarbonylphenyl)maleamic Acid], the ε ([3]; solvent not stated) is reported as 16013 and the λmax [3, 6] is reported as 294 nm.

Work on `COC(=O)c1ccc(N2C(=O)C=CC2=O)cc1` [Example 8, N-(4-methoxycarbonylphenyl)maleimide] yielded a ε ([3]; solvent not stated) of 15844 and a λmax [3, 6] of 245 nm.

`CCCCOC(=O)c1ccc(NC(=O)/C=C\C(=O)O)cc1` [Example 9, N-(4-n-butyloxycarbonylphenyl)maleamic Acid] gave a ε ([3]; solvent not stated) of 15806 and a λmax [3, 6] of 294 nm.

`CCCCOC(=O)c1ccc(N2C(=O)C=CC2=O)cc1` [Example 10, N-(4-n-butyloxycarbonylphenyl)maleimide] gave a ε ([3]; solvent not stated) of 15563 and a λmax ([3]; characterisation in Example 10, unit not given) of 245.

Work on `O=C(O)/C=C\C(=O)NCCCCCCOc1ccc(C(=O)c2ccccc2)cc1` [Example 11, N-[6-(4-benzoylphenoxy)-hexyl]-maleamic Acid] yielded a λmax ([3]; CH2 Cl2) of 285 nm, a ε ([3]; CH2 Cl2) of 16047 and a Toxicity ([1]; +S9) of 2500 μG plate^-1. For the same molecule, the Toxicity ([1]; -S9) was 2500 μG plate^-1.

In the case of `O=C(c1ccccc1)c1ccc(OCCCCCCN2C(=O)C=CC2=O)cc1` [Example 12, N-[6-(4-benzoylphenoxy)-hexyl]-maleimide], the λmax ([3]; CH2 Cl2) is reported as 286 nm, the ε ([3]; CH2 Cl2) is reported as 16590 and the Toxicity ([1]; +S9) is reported as 800 μG plate^-1. For the same molecule, the Toxicity ([1]; -S9) was 200 μG plate^-1.

For `O=C1C=CC(=O)N1c1ccccc1` [N-phenylmaleimide], the Substantivity (horn hoof keratin; [7]) was 22.2% and 21.1%, the Wt maleimide absorbed (horn hoof keratin; [7]) was 0.0968 g and 0.1001 g and the Average substantivity (horn hoof keratin; [8]) was 21.7%. The “Average wt maleimide absorbed” value (horn hoof keratin; [8]) was 0.0985 g, the “time within which all starting maleimide had reacted” value [4] was no more than 30 min and the Average substantivity (hair keratin; hair, average of the two tests) was 24.5%. For the same molecule, the “Average wt maleimide absorbed” value (hair keratin; hair, average of the two tests) was 0.1129 g, the “reduction in ultra-violet absorptivity of supernatant in contact with hair” value (hair keratin; initial tests, in words) was “considerable reduction in absorptivity” and the Substantivity (hair keratin; [9]) was 18.5% and 30.4%. The Wt maleimide absorbed (hair keratin; [9]) was 0.0837 g and 0.1421 g.

In the case of `NC(CSC1CC(=O)N(c2ccc(C(=O)c3ccccc3)cc2)C1=O)C(=O)O` (centres unmarked) [maleimide reacted with cysteine], the λmax [3, 5] is reported as 293 nm.
